The record followed here is article PMC4336141, “Repurposing Auranofin as a Lead Candidate for Treatment of Lymphatic Filariasis and Onchocerciasis” (PLoS Neglected Tropical Diseases, 2015).

The test system of one data set is adult male O. ochengi. As to the kind of experiment: Adult male Onchocerca ochengi motility scoring in vitro. To be noted: Day 5, motility. The class given is cell-based.
Data set [1] can be described thus: Plasma gold levels (elemental gold analysis) in Brugia infected gerbils. It is filed as in vivo, Mongolian gerbils (Meriones unguiculatus). The protocol: Animal studies were performed under IACUC approval #AN085723–02 to test the efficacy of auranofin in vivo. Male Mongolian gerbils (Meriones unguiculatus, Charles River Laboratories International, Inc., Wilmington, MA) were injected intraperitoneally (IP) with 300 B. pahangi L3 (Filariatech, Inc., Athens, GA) and treated 3 months post-infection. Auranofin was dissolved in 100% ethanol at 4 mg/mL and mixed 1:1 with PBS. Vehicle doses consisted of the same mixture of ethanol and PBS but without auranofin. Doses (up to 200 μl) were given to gerbils orally at 5 mg/kg body weight, BID weekdays and SID weekends for a total of 48 doses over 4 weeks.
Two studies (Study 1 and Study 2) were conducted using the same protocols and the same dosing schedule except that in Study 1, two gerbils from the auranofin treatment group and two gerbils from the vehicle group were treated for 14 days and were necropsied 2 hours after their last dose (interim necropsy) to determine plasma gold levels (from auranofin). The remaining gerbils in Study 1 were treated for 28 days and were necropsied 11, 14, or 16 days after the end of dosing. In Study 2, all gerbils were treated for 28 days and were necropsied 16 days after the end of dosing. For both of these in vivo studies, worms were collected from the gerbil’s peritoneal cavity, counted, sexed and examined under a dissecting microscope. For each study a two-tailed Student’s T-test assuming equal variance was conducted using Microsoft Excel to determine the statistical significance of the difference in mean worm retrieval between the auranofin treated and vehicle treated groups. Gerbil blood was collected by cardiac puncture and plasma was sent to NMS Labs, Willow Grove, PA to determine plasma gold levels (elemental gold analysis) by graphite furnace atomic absorption spectroscopy.

Data set [2] deals with endogenous Brugia thioredoxin reductase. In words: Thioredoxin reductase activity of lysates of worms recovered from gerbils treated in vivo. The protocol: Thioredoxin reductase activity of worm lysates was assayed using female B. malayi treated in vitro with either 0.3 μM, 0.1 μM, or 0.03 μM auranofin or 1% DMSO. After 5 hours of treatment, worm motility was measured using the Worminator, and then worms (24 in each group) were pooled, washed three times in PBS, and lysed by douncing in a glass homogenizer in assay buffer (Abcam Thioredoxin Reductase Assay kit, ab83463) with 1 mM PMSF. The crude lysates were centrifuged at 10,000 rcf for 15 minutes at 4°C to pellet insoluble material. The total protein concentrations of soluble lysates were measured using the Bradford assay. The soluble lysates were incubated for 20 minutes in assay buffer or assay buffer with a proprietary thioredoxin reductase specific inhibitor before adding a specific substrate, DTNB (5, 5′-dithiobis (2-nitrobenzoic) acid), and measuring activity at 20 second intervals for 40 minutes using the SpectraMax Plus Microplate Reader (Molecular Devices, Sunnyvale, CA) at λ = 412 nm. Lysates were tested in duplicate. TrxR activity was calculated based on the linear amount of TNB produced per minute per mg of total protein and adjusted for background activity from enzymes other than TrxR in the lysates.
Thioredoxin reductase activity was also analyzed in worms that were treated with auranofin or vehicle in vivo. […]

Values joined by “and” are separate entries in the source; they are usually repeats but may differ in a detail not shown here. Equal values may be shown once.

Broadly, the IC50 is the point on the concentration scale where inhibition reaches its midpoint. Read a high IC50 as a need for much substance. The compound `CC[PH](CC)(CC)[Au][S][C@@H]1O[C@H](COC(C)=O)[C@@H](OC(C)=O)[C@H](OC(C)=O)[C@H]1OC(C)=O` [auranofin, 2,3,4,6-tetra-O-acetyl-1-thio-beta-D-glucopyranosato-S (triethylphosphine) gold] displayed an IC50 with adult male O. ochengi of 400 nM. Further, the “mean plasma gold level” value in data set [1] (Study 1, 16 days after the last dose) amounted to 701 nM; in data set [1] (Study 2, 16 days after the last dose), 609 nM. Besides, the Plasma gold levels is 1700 µg/L and 1000 µg/L in data set [1] (Study #1, 2 hours after last dose, interim necropsy after 14 days of treatment, 5 mg/kg oral, individual gerbils, 5 mg/kg); 270 µg/L in data set [1] (Study #1, 11 days after last dose, 28 days of treatment); 340 µg/L in data set [1] (Study #1, 14 days after last dose, 28 days of treatment); 170 µg/L and 190 µg/L and 160 µg/L in data set [1] (Study #1, 16 days after last dose, individual gerbils, values less than 100 μg/L given as zero); 130 µg/L and 190 µg/L and 160 µg/L in data set [1] (Study #2, 16 days after last dose, individual gerbils, values less than 100 μg/L given as zero). The Concentration of gold in data set [1] (Study #1, plasma, 2 hours after last dose, interim necropsy after 14 days of treatment, individual gerbils) was 5080 nM and 8630 nM and 8631 nM and 5077 nM; in data set [1] (Study #1, plasma, 11 days after last dose) it was 1371 nM; in data set [1] (Study #1, plasma, 14 days after last dose) it was 1726 nM; in data set [1] (Study #1, plasma, 16 days after last dose, individual gerbils, values less than 508 nM given as zero) it was 863 nM and 965 nM and 812 nM; in data set [1] (Study #2, plasma, 16 days after last dose, individual gerbils, values less than 508 nM given as zero), 660 nM and 965 nM and 812 nM. The “gold levels in blood” value in data set [1] (approximately 2 weeks after the last dose) stood at 0.66 µM. The “Thioredoxin reductase activity, percent of vehicle control” value in data set [2] (worms collected 16 days after the last dose from treated gerbils) is 51%. The “reduction of endogenous thioredoxin reductase activity vs vehicle” value in data set [2] (worms removed 16 days after the last dose from gerbils treated 28 days) came to 49%.
